This is an account of results in patent US10172789B2, “Compositions for transdermal delivery of mTOR inhibitors” (PALVELLA THERAPEUTICS LLC, priority 2013, dated 2019).

Entries after “also recorded” stand apart in the source; their conditions may differ. A value given as a limit tells only on which side of the number the result lay.

Data set [1] can be described thus: Rapamycin distribution in human explant skin after topical application (reverse-phase HPLC). The data set is classed as in vitro ADME. As to the method:
Rapamycin extracted from the indicated tissue slices was assayed by reverse-phase HPLC. The tissue surface was cleaned with isopropyl alcohol prior to sectioning to remove any residual surface material.
To test delivery of rapamycin from a formulation similar to that disclosed in Example 2, the formulation was applied to explant human skin.

For data set [2], the system named is ribosomal protein S6 phosphorylation. Description: S6 phosphorylation (P-S6) western blot in human HaCaT keratinocytes. In kind it is cell-based. As to the method:
(§1) FIGS. 1C-F show immunochemistry […] images of frozen skin sections taken from mice treated with the same creams as FIG. 1B.
(§2) To evaluate whether benzyl alcohol has deleterious effects on rapamycin activity, rapamycin was dissolved in benzyl alcohol (and compared with other solvents as indicated) and evaluated for its ability to block phosphorylation of ribosomal protein S6, a commonly used method to assess mTOR pathway inhibition by rapamycin, in human HaCaT and patient-derived keratinocytes. […] In the assays described below, a P-S6-specific antibody recognizes only the phosphorylated form of S6 whereas the other antibody recognizes total S6 protein (i.e., both P-S6 and unphosphorylated S6). […] The inhibition of phospho-S6 was observed by both western blot analysis of protein extracts from treated mouse skin (FIG. 1B) and by immunohistochemistry (IHC) of frozen sections prepared from treated mouse skin (FIG. 1C-F).
Next-generation mTOR inhibitors have similar effects on ribosomal protein S6-phosphoylation (p-S6) when compared to rapamycin. […] The p-S6 levels were quantified and the ratio of p-S6 to total S6 (total S6 data not shown) was graphed in FIG. 2B in similar fashion to FIG. 1.
(In general: In western blotting, separated proteins are transferred to a membrane and probed.)

Data set [3] concerns mouse skin. Nature of the data set: Gross examination of topically-treated mouse ears, flanks and footpads. In kind it is in vivo. The following applies: flanks and footpads vs untreated or placebo-treated skin, data not shown.
The test system of data set [4] is ribosomal protein S6 phosphorylation. Description: S6 phosphorylation in mouse skin after topical formulation (western blot, IHC). The note with it: mouse skin including ears, topical formulation with rapamycin dissolved in benzyl alcohol; western blot and IHC. In kind it is in vivo. As to the method: as §1, §2

Regarding `CO[C@H]1C[C@@H]2CC[C@@H](C)[C@@](O)(O2)C(=O)C(=O)N2CCCC[C@H]2C(=O)O[C@H]([C@H](C)C[C@@H]2CC[C@@H](O)[C@H](OC)C2)CC(=O)[C@H](C)/C=C(\C)[C@@H](O)[C@@H](OC)C(=O)[C@H](C)C[C@H](C)/C=C/C=C/C=C/1C` [rapamycin], in data set [1] (16 hours after application of rapamycin formulation), the “net deposition of rapamycin within the skin” value was > 4 % of the applied dose. The “rapamycin concentrations within the epidermis (and dermis)” value in data set [1] (16 hours after topical application, formulation similar to Example 2, compared with level needed to inhibit S6 phosphorylation in cell culture) is reported as “many fold higher than required for in vitro activity; also recorded: well above the IC50 value”. For the same molecule, the “effect on total S6 protein levels” value in data set [2] (rapamycin dissolved in benzyl alcohol or other solvents) was “little or no effect”. The “inhibition of ribosomal protein S6 phosphorylation (P-S6)” value in data set [2] (rapamycin dissolved in benzyl alcohol, DMSO, ethanol or diglycol, FIG. 1A) was “efficiently inhibits”. Also, the “skin irritation on gross examination” value in data set [3] is listed as “little or no irritation”. For the same molecule, in data set [4], the “S6 phosphorylation relative to total S6 protein” value is listed as “inhibited”.
